Data reported in patent US7456210B2, “Benzyloxy derivatives” (Hoffmann-La Roche Inc., priority 2004, dated 2008).

Target: T1, human MAO-B (Homo sapiens, UniProt P27338)
T1 construct: expressed in transfected cells; host or cells: EBNA cells (transient transfection); cell membranes used
T1 sequence (P27338 1-520): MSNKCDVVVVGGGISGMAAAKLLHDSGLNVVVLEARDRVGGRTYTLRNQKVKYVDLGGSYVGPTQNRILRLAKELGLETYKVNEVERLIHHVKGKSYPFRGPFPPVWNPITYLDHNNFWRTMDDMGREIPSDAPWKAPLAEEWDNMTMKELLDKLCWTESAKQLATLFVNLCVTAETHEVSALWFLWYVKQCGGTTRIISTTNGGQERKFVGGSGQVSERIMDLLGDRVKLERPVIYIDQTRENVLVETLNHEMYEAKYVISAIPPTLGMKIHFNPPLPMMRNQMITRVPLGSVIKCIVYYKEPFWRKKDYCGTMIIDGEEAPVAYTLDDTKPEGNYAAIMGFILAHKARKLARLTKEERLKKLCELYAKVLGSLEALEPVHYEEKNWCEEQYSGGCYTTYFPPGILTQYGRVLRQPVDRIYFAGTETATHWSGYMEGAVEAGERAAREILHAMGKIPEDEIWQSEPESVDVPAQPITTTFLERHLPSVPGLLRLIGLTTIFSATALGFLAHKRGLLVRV
Test: MAO-B enzymatic activity, spectrophotometric Amplex Red assay on membranes of transfected EBNA cells
Type: biochemical
Conditions: membranes of EBNA cells transfected with human MAO-B; substrate tyramine; 30 min preincubation at 37° C., pH 7.4
Experimental: The cDNA's encoding human MAO-A and MAO-B were transiently transfected into EBNA cells using the procedure described by Schlaeger and Christensen [Cytotechnology 15:1-13 (1998)]. After transfection, cells were homogenised by means of a Polytron homogenizer in 20 mM Tris HCl buffer, pH 8.0, containing 0.5 mM EGTA and 0.5 mM phenylmethanesulfonyl fluoride. Cell membranes were obtained by centrifugation at 45,000×g and, after two rinsing step with 20 mM Tris HCl buffer, pH 8.0, containing 0.5 mM EGTA, membranes were eventually re-suspended in the above buffer and aliquots stored at −80° C. until use.
MAO-A and MAO-B enzymatic activity was assayed in 96-well-plates using a spectro-photometric assay adapted from the method described by Zhou and Panchuk-Voloshina [Analytical Biochemistry 253:169-174 (1997)]. Briefly, membrane aliquots were incubated in 0.1 M potassium phosphate buffer, pH 7.4, for 30 min at 37° C. with or without various concentrations of the compounds. After this period, the enzymatic reaction was started by the addition of the MAO substrate tyramine together with 1 U/ml horse-radish peroxidase (Roche Biochemicals) and 80 μM N-acetyl-3,7,-dihydroxyphenoxazine (Amplex Red, Molecular Probes). The samples were further incubated for 30 min at 37° C. in a final volume of 200 μl and absorbance was then determined at a wavelength of 570 nm using a SpectraMax plate reader (Molecular Devices). Background (non-specific) absorbance was determined in the presence of 10 μM clorgyline for MAO-A or 10 μM L-deprenyl for MAO-B.
IC50 values were determined from inhibition curves obtained using nine inhibitor concentrations in duplicate, by fitting data to a four parameter logistic equation using a computer program.

| IC50 | SMILES |
| --- | --- |
| 0.018 µM | N=C(NO)[C@@H]1CC(=O)N(c2ccc(OCc3cccc(F)c3)cc2)C1 [Example 3, (R)-1-[4-(3-Fluoro-benzyloxy)-phenyl]-N-hydroxy-5-oxo-pyrrolidine-3-carboxamidine] |
| 0.016 µM | Cc1nc([C@@H]2CC(=O)N(c3ccc(OCc4cccc(F)c4)cc3)C2)no1 [Example 4, (R)-1-[4-(3-Fluoro-benzyloxy)-phenyl]-4-(5-methyl-[1,2,4]oxadiazol-3-yl)-pyrrolidin-2-one] |
| 0.043 µM | CCOC(=O)c1nc([C@@H]2CC(=O)N(c3ccc(OCc4cccc(F)c4)cc3)C2)no1 [Example 5, 3-{(R)-1-[4-(3-Fluoro-benzyloxy)-phenyl]-5-oxo-pyrrolidin-3-yl}-[1,2,4]oxadiazole-5-carboxylic acid ethyl ester] |
| 0.429 µM | NC(=O)c1nc([C@@H]2CC(=O)N(c3ccc(OCc4cccc(F)c4)cc3)C2)no1 [Example 6, 3-{(R)-1-[4-(3-Fluoro-benzyloxy)-phenyl]-5-oxo-pyrrolidin-3-yl}-[1,2,4]oxadiazole-5-carboxylic acid amide] |
| 0.387 µM | Cc1nc([C@@H]2CC(=O)N(c3ccc(OCc4cccc(F)c4)cc3)C2)cs1 [Example 8, (R)-1-[4-(3-Fluoro-benzyloxy)-phenyl]-4-(2-methyl-thiazol-4-yl)-pyrrolidin-2-one] |
| 0.187 µM | O=C1C[C@@H](c2c[nH]cn2)CN1c1ccc(OCc2cccc(F)c2)cc1 [Example 9, (R)-1-[4-(3-Fluoro-benzyloxy)-phenyl]-4-(1H-imidazol-4-yl)-pyrrolidin-2-one] |
| 0.392 µM | CON(C)C(=O)[C@@H]1CC(=O)N(c2ccc(OCc3cccc(F)c3)cc2)C1 [Example 10, (R)-1-[4-(3-Fluoro-benzyloxy)-phenyl]-5-oxo-pyrrolidine-3-carboxylic acid methoxy-methyl-amide] |
| 0.011 µM | CC(=O)[C@@H]1CC(=O)N(c2ccc(OCc3cccc(F)c3)cc2)C1 [Example 11, (R)-4-Acetyl-1-[4-(3-fluoro-benzyloxy)-phenyl]-pyrrolidin-2-one] |
